Assay results published in US20230349008A1, “PAPER-BASED SAMPLE TESTING DEVICES AND METHODS THEREOF” (CORNELL UNIVERSITY, priority 2020, published 2023).

Tests used:
E. coli ATCC-25922 [1] = test: On-chip paper-based antimicrobial susceptibility testing (AST), resazurin colorimetric readout; assay type: cell-based, Escherichia coli; conditions: eight test zones: seven antibiotic concentrations plus no-antibiotic control; overnight 37° C.; 5×10^5 CFU/mL; hue threshold
From the text: (§1) To functionalize the chips for AST, antibiotics and the growth-sensitive dye resazurin were pre-dried on the chip to enable testing with a single sample addition step. Antibiotics used consisted of ampicillin, meropenem, gentamicin, and ciprofloxacin (all sourced from MilliporeSigma). The growth-sensitive dye resazurin (PrestoBlue, Thermo Fisher) is a redox indicator that is reduced by metabolically active cells into resorufin, leading to significant colorimetric and fluorescent changes which provide a visual indication of bacterial growth as disclosed in Guerin, et al., “Application of resazurin for estimating abundance of contaminant-degrading micro-organisms,” Lett. Appl. […] Using a spectrophotometer (V-1200, VWR), the OD625 nm absorbance corresponding to a 0.5 McFarland standard was verified to be in the range of 0.08-0.13 22. […] To quantitatively analyze color change in the test zones following incubation, test chips were imaged using a smartphone and analyzed in MATLAB (MathWorks). Images were analyzed in the hue, saturation, value (HSV) color-space which we determined to be less sensitive to lighting conditions compared to the red, blue, green (RGB) color-space. For each test zone, the average hue value in a 160-pixel diameter circular region was calculated and a threshold was used to differentiate between zones with reduced (growth) and unreduced (no growth) resazurin. […]

E. coli BAA-2452 [2] = test: as above; assay type: cell-based, Escherichia coli; conditions: eight test zones: seven antibiotic concentrations plus no-antibiotic control; overnight 37° C.; 5×10^5 CFU/mL; hue threshold
From the text: as §1

E. coli BAA-2452 [3] = conditions: vendor MIC interpretation; cited from earlier work
E. coli ATCC-25922 [4] = conditions: vendor MIC interpretation; cited from earlier work

## CC1(C)S[C@@H]2[C@H](NC(=O)[C@H](N)c3ccccc3)C(=O)N2[C@H]1C(=O)O [ampicillin]
E. coli ATCC-25922 [1]
  number of positive test zones (reduced resazurin, uninhibited growth): no-antibiotic control positive only
E. coli BAA-2452 [2]
  number of positive test zones (reduced resazurin, uninhibited growth): six
E. coli BAA-2452 [3]
  susceptibility category via off-chip AST: resistant
E. coli ATCC-25922 [4]
  susceptibility category via off-chip AST: susceptible
